Patent US20190388558A1, “KARTOGENIN DERIVATIVE-CONTAINING POLYMERIC MICELLE, HYALURONIC ACID HYDROGEL, METHOD FOR PRODUCING THE SAME, AND USE THEREOF” (DONGGUK UNIVERSITY INDUSTRY-ACADEMIC COOPERATION FOUNDATION, priority 2018, published 2019)

Tested on: rats in which OA was induced
Assay: Intra-articular injection in rats with surgically induced (ACLT + MM) degenerative arthritis; histology, immunohistochemistry, OARSI and Mankin scoring
Format: in vivo, Sprague Dawley rats
Settings: IA injection twice at 7th and 10th week after surgery, sacrificed 8th week after first injection
Experimental: Animal experiments were performed with the approval of the animal experiment ethics committee by using 9-week old male Sprague Dawley rats (Orient Inc., Seoul, Korea). Degenerative arthritis (osteoarthritis; OA) was induced by performing anterior cruciate ligament transection (ACLT) and medial meniscectomy (MM) on the rats, and the rats were allowed to exercise on a treadmill for 20 minutes every day from two weeks after the surgery.
In the Examples of the present invention, technical statistics were used in order to determine the group average and standard deviation. […]
The rats were sacrificed at 8th week after the first IA injection, the knee joints were dissected and fixed with 10% paraformaldehyde (at 4° C. for 1 day), and then calcareous materials were removed with a Lite decalcifying solution (Sigma-Aldrich), and after the resulting knee joints were embedded in a Tissue-Tek OCT compound (Sakura Finetek, Torrance, Calif., USA) or paraffin wax, and then the paraffin wax fragment was stained with Safranin-O (4% w/v) and Fast Green (0.1% w/w). The degenerative state was evaluated by using an Osteoarthritis Research Society International (OARSI) cartilage Histopathology Assessment System and a Mankin evaluation system, and the fragments were analyzed through immunohistochemistry for COL2 and aggrecan. […]

## O=C(O)c1ccccc1C(=O)Nc1ccc(-c2ccccc2)cc1 [KGN, kartogenin]
  cartilage histology (Safranin-O staining): loss of cartilage due to matrix vertical cracks and surface layer exfoliation
